From patent US12616750B2, “Combination therapy utilizing DNA alkylating agents and ATR inhibitors” (Merck Patent GmbH, priority 2018, dated 2026)
Where two headings read alike, the source gives them in different places.

Legend:
[1] = evaluated in vivo; cited from earlier work
HCC-1954 cells [2] = experiment: Dose-matrix combination assay (synergy score, Loewe model); assay type: cell-based
Method: (§1) Dose-matrix combination assays were performed as described above, but performed in opague 384-well plates (2k viable cells/well). Compounds were added using Tecan D300e liquid. Protein solutions were supplemented with 0.3% Tween-20 (final) and diluted to 1 μM. All wells were normalized to the maximum amount of DMSO (maximum 0.4%) or Tween-20 added. […] Luminescence values were normalized to luminescence of non-treated cells and dose-response was fitted using Smart Fit. Synergy scores were calculated using LOEWE synergy model.
(§2) The screening of synergistic drug combinations can be accomplished by performing a dose-matrix assay. Therefore, two drugs are serial diluted and mixed at every dose level, yielding a dose-matrix. The drug combination can be additive if the effects of the combination are identical to the added effects of the single agents. However, the effects of the combination might also be stronger than the activity of the single agents. This scenario is termed synergy, whereas weaker combination effects compared to the single agents are termed antagonism. A dose-matrix assay is depicted schematically in FIG. 2 which illustrates the outcomes of a dose-matrix assay: additivity, antagonism and synergy.
(§3) The screening was conducted by serial diluting the duocarmycin derivative DUBA (10) and the DDR inhibitors. […] DUBA was combined in a dose-matrix assay with hycanthone. The cell viability was measured after 6 d of treatment using the CellTiter-Glo assay kit. The signals of the cell viability assay were normalized to untreated cells and fitted. […] By subtracting the modeled data from the fitted data, an excess matrix was generated. The excess matrix can be considered as a visualization of the differences between model and actual data which also highlights spots of either high synergy or antagonism. The quantification of the combination effects, however, was performed by calculating synergy scores. […] Besides synergy score, the potency of the drugs in monotherapy was obtained from these experiments. […] The potency was obtained from this dose-response curve.
(§4) The scattering of S was determined in a sham control experiment to define a cutoff for classifying a combination as truly synergistic or antagonistic. Thus seven different compounds were combined with itself on four different cell lines and the three-σ confidence interval was calculated around the mean of the measurement. […] For the sake of convenience, the cutoff was set to a value of ±1.
(§5) Synergy scores (S) were obtained from the combination experiments that indicated additivity […] if model and actual response were equal. […] The magnitude of the score determined the extent of the combination effects.

MCF7 cells = experiment: Cytotoxicity (cell viability); assay type: cell-based; details: Homo sapiens; MCF7 (EGFR −, MET −), Table 10
Method: (§6) Curve-shift assays were conducted as follows: The cell number and viability was determined using ViCell™-XR (Beckman Coulter) and seeded in opague 96-well plate (10k viable cells/well). After seeding, the plate was incubated (37° C., 5% C02) in a humid chamber overnight. Compounds were diluted in the appropriate medium, added to the cells and the plate was incubated (37° C., 5% CO2, 6 d) in a humid chamber. After 30 min equilibration at room temperature, CellTiter-Glo reagent (Promega) was added. After the plate was shaken (3 min, 550 rpm, rt) it was incubated (10 min, rt) and luminescence was read on a synergy 4 plate reader (BioTek). Evaluation was performed using GraphPad Prism version 6.05. Therefor luminescence values were normalized to luminescence values of non-treated cells and dose-response was fitted with 4-point logistic fit.
(§7) Dose-matrix combination assays were performed as described above, but performed in opague 384-well plates (2k viable cells/well). Compounds were added using Tecan D300e liquid. Protein solutions were supplemented with 0.3% Tween-20 (final) and diluted to 1 μM. All wells were normalized to the maximum amount of DMSO (maximum 0.4%) or Tween-20 added. Read out of luminescence was performed on Envision 2104 Multilabel Reader (Perkin Elmer) and data were evaluated using Genedata Screener® version 14.0.6-Standard (Genedata AG). Luminescence values were normalized to luminescence of non-treated cells and dose-response was fitted using Smart Fit. Synergy scores were calculated using LOEWE synergy model.

A549 cells = experiment: Dose-matrix combination assay (synergy score, Loewe model); assay type: cell-based; details: combination with AZD6738; A549 (EGFR-positive), 6 d
Method: as §7, §2

HCC-1954 cells [3] = experiment: Cytotoxicity (cell viability, CellTiter-Glo, 6 d); assay type: cell-based; details: Homo sapiens, HCC1954, HCC-1954
Method: as §1
After 6 d of treatment, CellTiter-Glo luminescent assay was performed and the luminescence was read on Envision Reader. The results were analyzed using GeneData Screener as described before.

MDA-MB-468 cells [4] = experiment: Cytotoxicity (cell viability, CellTiter-Glo, 6 d); assay type: cell-based; details: Homo sapiens, MDA-MB-468; read-out: IC50
MDA-MB-468 cells [5] = experiment: Dose-matrix combination assay (synergy score, Loewe model); assay type: cell-based; details: combination with DUBA; MDA-MB-468, 6 d; S ± SD; cutoff ±1
Method: as §1, §2, §3, §4, §5

NEK1 = target: T1, NEK1 (Homo sapiens, UniProt Q96PY6); details: cited from earlier work
T1 sequence (Q96PY6 1-1258): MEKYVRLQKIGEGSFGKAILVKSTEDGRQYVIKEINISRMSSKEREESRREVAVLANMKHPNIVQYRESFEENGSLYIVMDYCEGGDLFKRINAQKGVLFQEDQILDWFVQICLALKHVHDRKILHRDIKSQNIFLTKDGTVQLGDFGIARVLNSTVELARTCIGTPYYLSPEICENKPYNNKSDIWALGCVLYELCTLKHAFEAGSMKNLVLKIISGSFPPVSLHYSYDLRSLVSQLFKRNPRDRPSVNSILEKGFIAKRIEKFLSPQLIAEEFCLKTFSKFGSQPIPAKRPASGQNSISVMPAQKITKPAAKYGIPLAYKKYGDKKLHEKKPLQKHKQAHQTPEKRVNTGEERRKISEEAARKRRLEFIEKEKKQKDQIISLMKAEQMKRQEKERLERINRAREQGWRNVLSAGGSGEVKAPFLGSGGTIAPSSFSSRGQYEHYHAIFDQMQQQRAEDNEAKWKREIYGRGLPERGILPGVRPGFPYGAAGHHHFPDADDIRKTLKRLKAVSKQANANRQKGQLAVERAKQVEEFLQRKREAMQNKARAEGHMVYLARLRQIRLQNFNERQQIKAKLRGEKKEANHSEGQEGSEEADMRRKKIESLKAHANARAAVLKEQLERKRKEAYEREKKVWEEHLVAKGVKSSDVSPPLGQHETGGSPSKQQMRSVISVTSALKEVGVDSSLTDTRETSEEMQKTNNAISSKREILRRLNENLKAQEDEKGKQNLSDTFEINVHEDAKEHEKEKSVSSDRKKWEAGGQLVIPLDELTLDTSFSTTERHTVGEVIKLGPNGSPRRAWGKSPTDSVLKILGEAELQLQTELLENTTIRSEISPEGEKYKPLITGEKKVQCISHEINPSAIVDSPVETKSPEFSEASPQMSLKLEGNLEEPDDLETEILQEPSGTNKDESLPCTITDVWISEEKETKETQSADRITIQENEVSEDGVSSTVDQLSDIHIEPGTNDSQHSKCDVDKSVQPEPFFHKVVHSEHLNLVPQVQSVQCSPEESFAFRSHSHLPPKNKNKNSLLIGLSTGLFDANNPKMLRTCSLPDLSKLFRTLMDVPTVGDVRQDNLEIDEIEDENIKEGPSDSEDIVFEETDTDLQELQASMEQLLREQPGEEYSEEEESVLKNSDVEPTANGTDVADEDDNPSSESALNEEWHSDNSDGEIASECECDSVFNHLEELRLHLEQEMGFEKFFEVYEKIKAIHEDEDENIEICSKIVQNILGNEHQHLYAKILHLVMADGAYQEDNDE

MDA-MB-468 cells [6] = experiment: MNED curve-shift assay; assay type: cell-based
Description: (§8) Therefore a curve-shift assay system was established. In a first step, a dose-response curve (DRC) is obtained by treating a certain cell line with an inhibitor. The maximum non-efficacious dose (MNED) can be derived from this DRC. MNED is the highest dose, that can be added to a certain cell line without affecting the viability. The activity of the ADC is confirmed in a separate experiment. Finally, a combination experiment can be conducted. Therefore, the ADC and ADC plus inhibitor at MNED are added to the cells. The inhibitor is tested in parallel at MNED as a control. Due to the application of inhibitor at MNED, no reduction in cell viability caused by the inhibitor is expected. Three outcomes are possible: 1) The combination of ADC plus inhibitor is equipotent as the ADC only. […] Such a result would be interpreted as depotentiation. […] In this case, the potency of the ADC is potentiated.
(§9) Potentiation effects are expressed as dose-reduction indices (DRI), which can be calculated by dividing the IC50-value of ADC by the IC50-value of ADC plus inhibitor according to eq. 1
as §6
(§10) The determination of dose-reduction indices (DRI) in a maximum non-efficacious dose (MNED) curve-shift assay is a 3-step process as depicted exemplarily in FIG. 13. The cytotoxicity of the ADC is confirmed in a cell viability assay in an initial step. […] In the second step. the MNED of the ATRi was determined. […] In order to obtain a full […] for the combination, the starting concentration of the ADC was lowered compared to the experiment in step 1.

JIMT-1 cells = experiment: MNED curve-shift assay; assay type: cell-based
Description: as §8, §9, §6, §10

SK-BR-3 cells = experiment: MNED curve-shift assay; assay type: cell-based
Description: as §8, §9, §6, §10

SK-OV-3 cells = experiment: MNED curve-shift assay; assay type: cell-based
Description: as §8, §9, §6, §10

Calu-3 cells = experiment: MNED curve-shift assay; assay type: cell-based
Description: as §8, §9, §6, §10

MDA-MB-453 cells = experiment: MNED curve-shift assay; assay type: cell-based
Description: as §8, §9, §6, §10

HCC-1954 cells [7] = experiment: MNED curve-shift assay; assay type: cell-based; details: HCC-1954
Description: as §8, §9, §6, §10

BT-474 cells = experiment: MNED curve-shift assay; assay type: cell-based
Description: as §8, §9, §6, §10

[8] = combination with DUBA, HCC-1954, 6 d, S ± SD, cutoff ±1

Structure (SMILES): COc1c(O)c2c(c3cc(C(=O)N4CCc5c4c(O)c(OC)c4[nH]c(C(=O)N6CC7CC78C6=CC(=O)c6[nH]cc(C)c68)cc54)[nH]c13)CCN2C(N)=O (stereo not shown) [CC-1065]
- antitumor activity [1]: moderate antitumor activity
- toxicity [1]: hepatic toxicity limited its effectiveness

Structure (SMILES): COC(=O)c1cc2c3c(cc(O)c2[nH]1)N(C(=O)c1cc2cc(OC)c(OC)c(OC)c2[nH]1)C[C@H]3CCl [compound 13]
- Synergy score S (HCC-1954 cells [2]; combination with AZD6738, HCC-1954, 6 d): 4.1 ± 0.4
- Synergy score S (HCC-1954 cells [2]; combination with AZD6738, HCC-1954, 6 d, listed as DSA (13)): 4.1±0.4
- IC50 (MCF7 cells): 0.06 ± 0.02 nM
- Synergy score S (A549 cells): additive effects
- IC50 (HCC-1954 cells [3]; duocarmycin variant alone, mean ± SD or mean (individual values), read-out: IC50): 0.3 ± 0.1 nM
- IC50 (MDA-MB-468 cells [4]): 0.14 ± 0.07 nM

Structure (SMILES): COc1cc(-c2cnc(N)c(N3CC[C@@H](C(=O)O)[C@@H](C)[C@H]3C)n2)cc(OC)c1OC [Cmpd31]
- Synergy score S (MDA-MB-468 cells [5]): 0.4±0.2
- Synergy score S (HCC-1954 cells [2]; [8]): 0.3±0.1
- potency of NEK1 inhibition (NEK1): 170 nM

Structure (SMILES): CNCc1ccc(-c2cc(-c3nc(-c4ccc(S(=O)(=O)C(C)C)cc4)cnc3N)on2)cc1 [VE-822]
- Synergy score S (HCC-1954 cells [2]; combination with ADC αHER2-2, HCC-1954): 5.7±0.3
- Synergy score S (HCC-1954 cells [2]; [8]): 5.3±0.6
- MNED (maximum non-efficacious dose) (MDA-MB-468 cells [6]): 300 nM
- MNED (maximum non-efficacious dose) (JIMT-1 cells): 80 nM
- MNED (maximum non-efficacious dose) (SK-BR-3 cells): 125 nM
- MNED (maximum non-efficacious dose) (SK-OV-3 cells): 125 nM
- MNED (maximum non-efficacious dose) (Calu-3 cells): 80 nM
- MNED (maximum non-efficacious dose) (MDA-MB-453 cells): 40 nM
- MNED (maximum non-efficacious dose) (HCC-1954 cells [7]): 250 nM
- MNED (maximum non-efficacious dose) (BT-474 cells): 1000 nM
- IC50 (HCC-1954 cells [3]; ATRi alone, mean ± SD, read-out: Cytotoxicity IC50): 900 ± 400 nM
